Test results published in patent US6211250A, “Percutaneous delivery system” (Soltec Research Pty Ltd., priority 1996, dated 2001).
“Also recorded” adds a separate entry of the source.

Tests used:
[1] = In vitro skin diffusion through shed snake skin in horizontal flow-through diffusion cells; format: in vitro ADME, Children's Python; details: result in words
From the text: The Children's Python shed snake skin was obtained during natural shedding and the dorsal skin was used. Shed snake skin has shown to be a suitable model membrane for human skin by Itoh, et al., Use of Shed Snake Skin as a Model Membrane for In Vitro Percutaneous Penetration Studies: Comparison with Human Skin Pharm.
Method of Conducting In-Vitro Skin Diffusion Experiments in Horizontal Diffusion Cells
A modified stainless steel flow-through diffusion cell assembly based on that first shown by Cooper in J. Pharm. Sci. 73, 1984, was used to perform the experiments on diffusion of the drugs from various donor compositions through snake skin.
Topical formulations are weighed out onto the skin substrate which has an area of 0.79 cm^2. Active substance penetrates through the skin and into the receptor solution in the bottom section of the cell. Inlet and outlet tubes connected to the receptor chamber maintain skin conditions.
The temperature of the skin was maintained at 32° C.
The receptor solution consisted of 50% propylene glycol in water, made isotonic with 0.9% sodium chloride and preserved with 0.1% sodium azide.
The concentration of applied drug in each diffusion cell sample was measured using high pressure liquid chromatography (HPLC) and absorbance detection. The results reported for each experiment are average values of the replicate diffusion cells. […]

Candida albicans = details: result in words
Description: The gels and cream were applied to round glass cover slips of 5 cm^2 each. The application rate for all products was 5 mg/cm^2.
After drying, the coated side of the slides were placed on MEA plates which had been previously seeded with a culture of C. albicans. The plates were incubated at 37° C. for 72 hours. The zone of inhibition was measured around the test slides at the end of the incubation period. Furthermore the slides were removed and an assessment of the growth of the test organism was made in the contact zone with the slide. All tests were performed in duplicate.

Compound	penetration / rate of release of Ketoprofen into the skin (FIG. 3) ([1]; Example 3, varying level of Dermacryl 79)	penetration of ketoprofen (FIG. 5) ([1]; Example 8, different hydrophobic polymers)	activity of clotrimazole in the gel film against C. albicans (Candida albicans)
CC(C(=O)O)c1cccc(C(=O)c2ccccc2)c1 (stereo not drawn) [Ketoprofen, ketoprofen]	the rate of the release of Ketoprofen into the skin of the subject can be varied	can be controlled through the incorporation of hydrophobic polymers	–
Clc1ccccc1C(c1ccccc1)(c1ccccc1)n1ccnc1 [clotrimazole]	–	–	biologically active within the film according to the invention and in fact is more active than the commercial clotrimazole cream; also recorded: could be increased by addition of a plasticiser ie., propylene glycol
